Series [1] is described as follows: Metabolic stability test in liver S9. As to conditions: pH 7.4, human liver S9 2 mg protein/mL, LC/MS; for remaining at 10 min: unchanged form after 10 minutes at 37°C, read-out: Remaining rate in human liver S9 (%/10min); for remaining at 1 h: unchanged form after 60 minutes at 37°C, read-out: Remaining rate in human liver S9 (%/60min). It counts as in vitro ADME. In a few lines:
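Compound from DMSO solution was incubated at 37°C with human liver S9 (final 2 mg protein/mL) in 100 mM potassium phosphate pH 7.4 with an NADPH-regenerating system for 0, 10 and 60 minutes. Reactions were stopped with acetonitrile/0.1% formic acid. Unchanged compound was measured by LC/MS as remaining rate (%) relative to zero time.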

Series [2] can be described thus: Metabolic stability test in plasma. It counts as in vitro ADME, human. The following applies: LC/MS; for remaining at 10 min: unchanged form after 10 minutes at 37°C in human plasma, read-out: Remaining rate in human plasma (%/10min); for remaining at 1 h: unchanged form after 60 minutes at 37°C in human plasma, read-out: Remaining rate in human plasma (%/60min). The procedure, abridged:
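Compound in DMSO spiked into human, mouse or hamster plasma, incubated at 37°C for 0, 10 and 60 minutes, then quenched with acetonitrile/formic acid (final 0.1%). Unchanged compound in supernatant quantified by LC/MS; remaining rate (%) relative to time zero.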

The nature of series [3]: Stability test in buffer (pH 7.4). It counts as physicochemical. As to conditions: phosphate buffer/acetonitrile 7:3, 100 mM potassium phosphate buffer (pH 7.4) and acetonitrile 7:3 (v/v), LC/MS; for remaining at 10 min: 10 minutes at 37°C, read-out: Buf. remaining rate (%/10min); for remaining at 1 h: 60 minutes at 37°C, read-out: Buf. remaining rate (%/60min). The procedure, abridged: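 Compound from DMSO solution incubated at 37°C in 100 mM potassium phosphate buffer/acetonitrile 7:3 (v/v) for 0, 10 and 60 min, then quenched with acetonitrile containing formic acid (final 0.1%). Unchanged compound in supernatant quantified by LC/MS; remaining rate (%) = amount at each time / amount at zero time × 100.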

For `COC(=O)c1cc(OC)c(OC(=O)CCCc2ccc(NC(=O)c3ccc(C)nc3-c3ccc(C(F)(F)F)cc3)c(C(=O)N(C)C)c2)c(C(=O)OC)c1` [Compound 1-53, 4-[4-(3-dimethylcarbamoyl-4-{[6-methyl-2-(4-trifluoromethylphenyl)pyridine-3-carbonyl]amino}phenyl)butyryloxy]-5-methoxyisophthalic acid dimethyl ester], the remaining at 10 min in series [1] stood at 5%; in series [2] it was 3%; in series [3], 100%. Further, the figures for the remaining at 1 h in series [1], in series [2] and in series [3] were 2%, 3% and 106%, respectively.
Consider `COC(=O)c1cc(C)c(OC(=O)CCCc2ccc(NC(=O)c3ccccc3-c3ccc(C(F)(F)F)cc3)c(C(=O)N(C)C)c2)c(C)c1` [Compound 1-64, 4-[4-(3-dimethylcarbamoyl-4-{(4'-trifluoromethylbiphenyl-2-carbonyl)amino}phenyl)butyryloxy]-3,5-dimethylbenzoic acid methyl ester], for which the remaining at 10 min in series [1] was determined as 21%; in series [2] it was 98%; in series [3] it was 100%. The results for the remaining at 1 h in series [1], in series [2] and in series [3] were 4%, 93% and 101%, respectively.
As for `COC(=O)c1cc(C)c(OC(=O)CCCc2ccc(NC(=O)c3ccc(C)nc3-c3ccc(C(F)(F)F)cc3)c(C(=O)N(C)C)c2)c(C)c1` [Compound 1-65, 4-[4-(3-dimethylcarbamoyl-4-{[6-methyl-2-(4-trifluoromethylphenyl)pyridine-3-carbonyl]amino}phenyl)butyryloxy]-3,5-dimethylbenzoic acid methyl ester], the remaining at 10 min in series [1] was determined as 8%; in series [2], 98%; in series [3] it was 104%. The remaining at 1 h in series [1] amounted to 0%; in series [2], 94%; in series [3], 104%.
With `COC(=O)c1ccc(OC(=O)CCCc2ccc(NC(=O)c3ccccc3-c3ccc(C(F)(F)F)cc3)c(C(=O)N(C)C)c2)c(C)c1` [Compound 1-66, 4-[4-(3-dimethylcarbamoyl-4-{(4'-trifluoromethylbiphenyl-2-carbonyl)amino}phenyl)butyryloxy]-3-methylbenzoic acid methyl ester], the remaining at 10 min was found to be 3% in series [1], 67% in series [2] and 101% in series [3]. In addition, the remaining at 1 h in series [1] is 0%; in series [2] it was 8%; in series [3] it was 103%.
Regarding `CCc1cc(C(=O)OC)ccc1OC(=O)CCCc1ccc(NC(=O)c2ccccc2-c2ccc(C(F)(F)F)cc2)c(C(=O)N(C)C)c1` [Compound 1-67, 4-[4-(3-dimethylcarbamoyl-4-{(4'-trifluoromethylbiphenyl-2-carbonyl)amino}phenyl)butyryloxy]-3-ethylbenzoic acid methyl ester], the results for the remaining at 10 min in series [1], in series [2] and in series [3] were 3%, 77% and 103%, respectively. In addition, the remaining at 1 h in series [1] came out at 0%; in series [2], 17%; in series [3], 105%.
For the molecule `COC(=O)c1ccc(OC(=O)CCCc2ccc(NC(=O)c3ccccc3-c3ccc(C(F)(F)F)cc3)c(C(=O)N(C)C)c2)c(C(C)C)c1` [Compound 1-68, 4-[4-(3-dimethylcarbamoyl-4-{(4'-trifluoromethylbiphenyl-2-carbonyl)amino}phenyl)butyryloxy]-3-isopropylbenzoic acid methyl ester], the remaining at 10 min in series [1] is 11%; in series [2] it was 77%; in series [3], 101%. Moreover, the remaining at 1 h was 3% in series [1], 18% in series [2] and 103% in series [3].
For the molecule `COC(=O)c1ccc(OC(=O)CCCc2ccc(NC(=O)c3ccc(C)nc3-c3ccc(C(F)(F)F)cc3)c(C(=O)N(C)C)c2)c(C)c1` [Compound 1-69, 4-[4-(3-dimethylcarbamoyl-4-{[6-methyl-2-(4-trifluoromethylphenyl)pyridine-3-carbonyl]amino}phenyl)butyryloxy]-3-methylbenzoic acid methyl ester], the remaining at 10 min in series [1] stood at 0%; in series [2], 70%; in series [3] it was 101%. The remaining at 1 h in series [1] was 0%; in series [2], 11%; in series [3], 106%.
On to `CCOC(=O)c1ccc(OC(=O)CCCc2ccc(NC(=O)c3ccc(C)nc3-c3ccc(C(F)(F)F)cc3)c(C(=O)N(C)C)c2)cc1` [Compound 1-71, 4-[4-(3-dimethylcarbamoyl-4-{[6-methyl-2-(4-trifluoromethylphenyl)pyridine-3-carbonyl]amino}phenyl)butyryloxy]benzoic acid ethyl ester], for which the values for the remaining at 10 min in series [1], in series [2] and in series [3] were 0%, 53% and 102%, respectively. The remaining at 1 h worked out at 0% in series [1], 0% in series [2] and 105% in series [3].
For `COC(=O)c1cc(C(=O)OC(C)C)ccc1OC(=O)CCCc1ccc(NC(=O)c2ccc(C)nc2-c2ccc(C(F)(F)F)cc2)c(C(=O)N(C)C)c1` [Compound 1-72, 4-[4-(3-dimethylcarbamoyl-4-{[6-methyl-2-(4-trifluoromethylphenyl)pyridine-3-carbonyl]amino}phenyl)butyryloxy]isophthalic acid 1-isopropyl ester 3-methyl ester], the remaining at 10 min in series [1] amounted to 4%; in series [2], 0%; in series [3], 113%. The remaining at 1 h in series [1] was determined as 0%; in series [2] it was 0%; in series [3], 112%.
`CCc1cc(C(=O)OC)cc(Cl)c1OC(=O)CCCc1ccc(NC(=O)c2ccc(C)nc2-c2ccc(C(F)(F)F)cc2)c(C(=O)N(C)C)c1` [Compound 1-73, 3-chloro-4-[4-(3-dimethylcarbamoyl-4-{[6-methyl-2-(4-trifluoromethylphenyl)pyridine-3-carbonyl]amino}phenyl)butyryloxy]-5-ethylbenzoic acid methyl ester]: the figures for the remaining at 10 min in series [1], in series [2] and in series [3] were 10%, 78% and 101%, respectively. Moreover, the remaining at 1 h stood at 0% in series [1], 19% in series [2] and 101% in series [3].
Turning to `COC(=O)c1cc(Cl)c(OC(=O)CCCc2ccc(NC(=O)c3ccc(C)nc3-c3ccc(C(F)(F)F)cc3)c(C(=O)N(C)C)c2)c(C(C)C)c1` [Compound 1-74, 3-chloro-4-[4-(3-dimethylcarbamoyl-4-{[6-methyl-2-(4-trifluoromethylphenyl)pyridine-3-carbonyl]amino}phenyl)butyryloxy]-5-isopropylbenzoic acid methyl ester], the remaining at 10 min in series [1] is 24%; in series [2] it was 77%; in series [3], 102%. In addition, the figures for the remaining at 1 h in series [1], in series [2] and in series [3] were 9%, 19% and 101%, respectively.
Consider `CCCOC(=O)c1cc(Cl)c(OC(=O)CCCc2ccc(NC(=O)c3ccc(C)nc3-c3ccc(C(F)(F)F)cc3)c(C(=O)N(C)C)c2)c(OC)c1` [Compound 1-75, 3-chloro-4-[4-(3-dimethylcarbamoyl-4-{[6-methyl-2-(4-trifluoromethylphenyl)pyridine-3-carbonyl]amino}phenyl)butyryloxy]-5-methoxybenzoic acid propyl ester], for which the results for the remaining at 10 min in series [1], in series [2] and in series [3] were 23%, 0% and 113%, respectively. Also, the remaining at 1 h in series [1] was 3%; in series [2] it was 0%; in series [3], 124%.
Take `CC(C)OCCOC(=O)c1ccc(OC(=O)CCCc2ccc(NC(=O)c3ccccc3-c3ccc(C(F)(F)F)cc3)c(C(=O)N(C)C)c2)cc1` [Compound 1-76, 4-[4-(3-dimethylcarbamoyl-4-{(4'-trifluoromethylbiphenyl-2-carbonyl)amino}phenyl)butyryloxy]benzoic acid 2-isopropoxyethyl ester]: the remaining at 10 min in series [1] amounted to 5%; in series [2] it was 50%; in series [3], 99%. Moreover, the remaining at 1 h was determined as 2% in series [1], 1% in series [2] and 100% in series [3].
For the molecule `CC(=O)NCCOC(=O)c1ccc(OC(=O)CCCc2ccc(NC(=O)c3ccccc3-c3ccc(C(F)(F)F)cc3)c(C(=O)N(C)C)c2)cc1` [Compound 1-77, 4-[4-(3-dimethylcarbamoyl-4-{(4'-trifluoromethylbiphenyl-2-carbonyl)amino}phenyl)butyryloxy]benzoic acid 2-acetylaminoethyl ester], the remaining at 10 min in series [1] was 0%; in series [2] it was 59%; in series [3], 99%. The remaining at 1 h was determined as 0% in series [1], 2% in series [2] and 100% in series [3].

For the origin of these results see patent EP1803452A1, “ESTER DERIVATIVE AND PHARMACEUTICAL USE THEREOF” (Japan Tobacco, Inc., priority 2004, dated 2006).
